This is an account of results in publication PMC12256496, “An advancement in developmental and reproductive toxicity (DART) risk assessment: evaluation of a bioactivity and exposure-based NAM toolbox” (Frontiers in Toxicology, 2025).

Series [1] is described as follows: Human in vivo PK data: concentration-dose ratio (CDR) and toxicokinetic variability factor (TKVF).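 Also: Literature-pooled human in vivo PK data, plasma, serum or cord blood concentrations per daily dose, weighted by study population size across non-pregnant, pregnant and fetal groups.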 Also on record: 95% percentile (Conc-dose-ratio): unit not given here.
A further series concerns rabbits. Also on record: method as in Supplementary Data Sheet 1. As to conditions: ref Supplementary Data Sheet 1, cited from earlier work.
The subject of series [2] is developmental or reproductive toxicity in animal or human. Particulars: cited from earlier work.
The next series has as its system rats. Particulars: ref Supplementary Data Sheet 1, cited from earlier work.
Series [3] is described as follows: hepatic intrinsic clearance, CLint (PBK parameter). The format is in vitro ADME.
Series [4] concerns human developmental and reproductive toxicity. As to conditions: oral, ref Supplementary Data Sheet 1, cited from earlier work.
The conditions of series [5]: Solubility pH 2.2; ref [4]; cited from earlier work.
The conditions of series [6]: cited from earlier work.
For series [7] the following is noted: ref FSCJ, EFSA, SCF, JMPR as named in the cell; cited from earlier work.
Series [8] in a line: renal clearance, Fup*GFR (PBK parameter). Particulars: method Fup*GFR.
The conditions of series [9]: human.
Series [10] relates to human induced pluripotent stem cells (hiPSCs). Briefly: ReproTracker (cardiomyocyte, hepatocyte-like and neuronal differentiation). The format is cell-based. From the text:
The ReproTracker assay assesses chemical perturbation of early embryonic development by evaluating key events of cardiomyocyte, hepatocyte-like (HLC) and neuronal cell differentiation using human induced pluripotent stem cells (hiPSCs). The ReproTracker protocol is described in ([Jamalpoor et al., 2022]; [Moreau et al., 2023]) and was followed introducing a few modifications to allow for concentration response analysis. […] Lineage specific differentiation was then investigated by assessment of gene expression patterns of cell-specific biomarkers, induced cytotoxicity (AlamarBlue cell viability assay) and by morphological profiling. Gene biomarkers quantified by multiplex qRT-PCR included BMP4 and MYH6 for cardiomyocytes, FOXA2 and AFP for hepatocyte-like cells, PAX6 and NESTIN for neural rosette lineage. […] Saccharin was used as a negative control substance for all 3 lineages. For dose dependent qRT-PCR analysis quality control filtered Ct values were normalised using an adaptation of the Pfaffl ([Pfaffl, 2001]) method to calculate ΔCt values with respect to biomarker and housekeeping gene amplification efficiencies. […] In addition, Alamar blue read outs were taken from the differentiating cells at day 7 and the end of each differentiation to measure cell viability in a dose dependent way. The AlamarBlue readout was normalised and transformed using a Bayesian hierarchical approach The Bayesian model assumes measurement between rows on the treatment plates are correlated but allows for differences in average sample response between rows. […] The final cell viability PODs were those at time point end (day 14 for cardiomyocytes, day 21 for HCLs and day 13 for neural) and had CDS above or equal to 0.5. Both the gene biomarker PODs and cell viability/cytotoxicity PODs for each tested lineage are considered for BER calculation.

The test system of series [11] is human induced pluripotent stem cell (hiPSC). The series can be described thus: devTOX quickPredict (ornithine/cystine ratio, cell viability). The format is cell-based. The method, then:
devTOX quickPredict is a human induced pluripotent stem cell (hiPSC) -based assay that predicts the concentration at which a compound may elicit developmental toxicity. […] Assays were performed as described in [Palmer et al. (2013)] with modifications. Briefly undifferentiated hiPSCs are exposed to the compound for 48 h, with media and test article replacement every 24 h. Ornithine and […] concentrations were measured from the final 24-h treatment using Ultra-Performance Liquid Chromatography-High Resolution Mass Spectrometry (UPLC-HRMS). Cell viability was assessed after sample collection using the CellTiter-Fluor Cell Viability Assay (Promega). Dose-response analysis for the o/c ratio, cell viability, ornithine response and cystine response were performed with GraphPad Prism (version 9.1 or newer, GraphPad Software). Each data set was fit with a nonlinear model. The standard model used for analysis is a four-parameter log-logistic nonlinear model. However, the Akaike information criterion (GraphPad Prism) was used to determine if an asymmetric (five-parameter) or multiphasic nonlinear model was a better fit for the data than the four-parameter model. The developmental toxicity potential (dTP, o/c ratio) and toxicity potential (TP, cell viability) concentrations were predicted from the respective dose-response curves using the hiPSCs cell developmental toxicity threshold (dTT, 0.85).

The test system of another series is mice. Also on record: method as in Supplementary Data Sheet 1. Particulars: ref Supplementary Data Sheet 1, cited from earlier work.
Setting [12] is: Fetus population, TKVF95 = p95 / weighted mean concentration-dose ratio.
Setting [13] is: Non-Pregnant population, TKVF95 = p95 / weighted mean concentration-dose ratio.
[14] abbreviates: Pregnant population, TKVF95 = p95 / weighted mean concentration-dose ratio.
[15] abbreviates: evidence of developmental or reproductive toxicity in animal or human, irrespective of exposure/dose, ref Supplementary Data Sheet 1.
[16] abbreviates: Non-Pregnant, combined (oral, IV).

Each structure is given as a SMILES string. Read-outs that look alike come from different tables or passages of the source. Peptide text beside a SMILES is read from it.

`CCN(CC)CCNC(=O)c1cc(Cl)c(N)cc1OC` [Metoclopramide]: the TKVF in series [1] (setting [12]) amounted to 1.97; in series [1] (Foetus, IV) it was 1.97; in [1] (setting [13]) it was 2.85; in [1] (Non-Pregnant, combined (oral+IV)) it was 2.85; in series [1] (setting [14]), 2.71; in [1] (Pregnant, IV), 2.71. Besides, the “exposure without adverse developmental effects, multiple of maximum recommended human dose” value was ~12 times in the series with rabbits (oral, pregnant rabbits) and ~6 times with rats (oral, pregnant rats). In addition, the “DART Hazard Call” value in [2] was “Toxic”.

The term Aqueous Solubility denotes how much of the substance goes into solution per volume. As for `COC(=O)[C@H](Cc1ccccc1)NC(=O)[C@@H](N)CC(=O)O` [Aspartame] (H-Asp-Phe-OMe), the “Intrinsic Liver Clearance” value in series [3] (scaled from [6]) came to 400.2 L/h. In [4] (Dietary, 2,400 mg/daily), the “Exposure risk (DART risk classification)” value is listed as “Low Risk”. The “Aqueous Solubility” value in [5] was 20 mg/mL. The Fup in series [6] (ref [6]) was 83.8%. For the same compound, the ADI entry in series [7] is “ADI set by EFSA (40 mg/kg/day)”. In addition, the “Renal Clearance” value in series [8] worked out at 6.049 L/h.

With `CCOC(=O)c1ccccc1C(=O)OCC` [Diethyl phthalate], the “Intrinsic Liver Clearance” value in series [3] was 596.6 L/h. Besides, the “Renal Clearance” value in series [9] turned out to be 1.371 L/h. In addition, the Fup in [6] (ref [19]) is listed as 19%.

For `CN(C)C(=N)N=C(N)N` [Metformin], in [1] (female, human, in vivo), the “CDR fold difference to non-pregnant” value was determined as 0.73, the “CDR fold difference to pregnant” value came out at 1.00 and the TKVF is listed as 2.75. In addition, in [1] (female, human, in vivo, po), the “95% percentile (Conc-dose-ratio)” value is recorded as 0.0213, the “Fold Difference to non-pregnant” value worked out at 0.73, the “Fold Difference to pregnant” value came to 1.00 and the “Mean Conc-dose -ratio” value is recorded as 0.008 uM/(mg/day]. Moreover, in [1] (female, human, in vivo, po), the TKVF is reported as 2.75. For the same compound, in series [1] (human, in vivo), the “CDR fold difference to pregnant” value was 0.56. For the same compound, the “Fold Difference to pregnant” value in series [1] (human, in vivo, po) was 0.56. The “highest dose not teratogenic” value with rabbits (rabbits) is recorded as 600 mg/kg/day. For the same compound, in [4] (Pharmaceutical, 2,000 mg/daily), the “Exposure risk (DART risk classification)” value is “Low Risk”. Further, the “DART Hazard Call” value in [2] (setting [15]) is “Non Toxic”. For the same compound, the “highest dose not teratogenic” value with rats (rats) is given as 600 mg/kg/day.

For the compound `CN(CCOc1ccc(CC2SC(=O)NC2=O)cc1)c1ccccn1` (stereo not drawn) [Rosiglitazone], the TKVF in series [1] (female, human, in vivo) stood at 1.71; in [1] (female, human, in vivo, po), 1.71; in series [1] (human, in vivo), 4.34; in series [1] (human, in vivo, po), 4.34. Besides, the “no-effect dose for effects on the placenta, embryo/fetus and offspring” value in the series on rabbits (rabbits) is recorded as 15 mg/kg/day; with rats (rats), 0.2 mg/kg/day.

Take `CCCC(CCC)C(=O)O` [Valproic acid (VPA), Valproic acid]: the entries for the “CDR fold difference to non-pregnant” value in series [1] (Fetus population), in [1] (Non-Pregnant population (reference)) and in series [1] (Pregnant population) were 0.78, 1.00 and 0.69, respectively. In addition, the “CDR fold difference to pregnant” value in series [1] (Fetus population) is reported as 1.13; in series [1] (Pregnant population (reference)), 1.00. In addition, the TKVF in series [1] (setting [12]) stood at 1.52; in series [1] (Foetus, combined (oral, IV)) it was 1.52; in [1] (setting [13]), 1.62; in series [1] (setting [16]), 1.62; in series [1] (setting [14]), 1.85; in series [1] (Pregnant, combined (oral, IV)), 1.85. Further, the “95% percentile (Conc-dose-ratio)” value is listed as 0.52 in [1] (Foetus, combined (oral, IV)); 0.71 in series [1] (setting [16]); 0.56 in [1] (Pregnant, combined (oral, IV)). In addition, the “Fold Difference to non-pregnant” value in series [1] (Foetus, combined (oral, IV)) turned out to be 0.78; in [1] (setting [16]) it was 1.00; in series [1] (Pregnant, combined (oral, IV)) it was 0.69. Also, the “Fold Difference to pregnant” value in series [1] (Foetus, combined (oral, IV)) came out at 1.13; in [1] (Pregnant, combined (oral, IV)) it was 1.00. Also, the “Mean Conc-dose -ratio” value in [1] (Foetus, combined (oral, IV)) is 0.34 uM/(mg/day]; in series [1] (setting [16]) it was 0.44 uM/(mg/day]; in series [1] (Pregnant, combined (oral, IV)), 0.30 uM/(mg/day]. In series [10] (Figure 8B), the “BER from ReproTracker” value is on record as < 1. The “BER from devTOX quickPredict” value in series [11] (Figure 8B) is given as < 1. Also, the “Exposure risk (DART risk classification)” value in series [4] (Pharmaceutical, 600 mg/daily) is reported as “High Risk”; in series [4] (Pharmaceutical, 3,600 mg/daily) it was “High Risk”. Also, the “DART Hazard Call” value in [2] (setting [15]) is listed as “Toxic”.

Consider `CC(=O)CC(c1ccccc1)c1c(O)c2ccccc2oc1=O` (stereo not drawn) [Warfarin], for which the TKVF in [1] (female, human, in vivo) worked out at 1.93; in [1] (female, human, in vivo, po), 1.93; in series [1] (human, in vivo) it was 1.82; in series [1] (human, in vivo, po), 1.82. Besides, the ReproTracker outcome in series [10] (at higher concentrations, not sensitive enough for a protective PoD) is listed as “flags potential embryotoxicity”.

As for `CN(Cc1cnc2nc(N)nc(N)c2n1)c1ccc(C(=O)N[C@@H](CCC(=O)O)C(=O)O)cc1` [Methotrexate (MTX), Methotrexate], the TKVF in series [1] (setting [13]) was determined as 2.74. For the same compound, the TKVF in series [1] (Non-Pregnant, combined (oral, intramuscular, subcutaneous)) stood at 2.74. In series [1] (female, human, in vivo), the “CDR fold difference to non-pregnant” value was 1.11 and the TKVF was 2.65. Besides, in [1] (female, human, in vivo, sc), the “95% percentile (Conc-dose-ratio)” value is listed as 0.15, the “Fold Difference to non-pregnant” value was 1.11, the “Mean Conc-dose -ratio” value was 0.055 uM/(mg/day] and the TKVF was 2.65. Also, in series [1] (human, in vivo), the “CDR fold difference to non-pregnant” value was 1.00. In addition, the “concentration leading to effects on iPSC differentiation” value in series [10] (additional testing in ReproTracker, data not shown) is listed as “above 0.0085 μM”. In addition, in series [11] (PoD 0.06 μM, high-risk scenario 10 mg/weekly), the “BER from devTOX quickPredict” value is reported as ~1. Further, the “concentration at which disruption to iPSC metabolism was detected” value in series [11] (devTOX quickPredict) was 0.06 µM. Moreover, the “Exposure risk (DART risk classification)” value in series [4] (Pharmaceutical, 10 mg/weekly) was “High Risk”. Besides, the “DART Hazard Call” value in series [2] (setting [15]) is “Toxic”.

For `O=C1CN(/N=C/c2ccc([N+](=O)[O-])o2)C(=O)N1` [Nitrofurantoin], in series [1] (female, human, in vivo), the “CDR fold difference to non-pregnant” value worked out at 1.29, the “CDR fold difference to pregnant” value stood at 1.00 and the TKVF amounted to 5.73. For the same compound, the “CDR fold difference to pregnant” value in series [1] (human, in vivo) is listed as 1.74. In series [1] (human, in vivo, po), the “95% percentile (Conc-dose-ratio)” value was found to be 0.11, the “Fold Difference to non-pregnant” value worked out at 1.00, the “Mean Conc-dose -ratio” value is reported as 0.033 uM/(mg/day] and the TKVF turned out to be 3.36. In addition, in the series with mice (based on mg/kg administered to the dam), the “multiple of human dose with growth retardation and low incidence of minor and common malformations” value was 68 times. In addition, the “multiple of human dose at which fetal malformations were not observed” value in the series on mice was 25 times. The “Exposure risk (DART risk classification)” value in series [4] (Pharmaceutical, 200 mg/daily) was “High Risk”. Moreover, the “DART Hazard Call” value in series [2] (setting [15]) is reported as “Uncertain”.
